In US9131719B2, “Use of certain neoflavonoids for intensifying and/or producing a sensory impression of sweetness” (SYMRISE AG, priority 2011, dated 2015):

Key:
Type in all cases: in vivo
[1] = test system: impression of sweetness of a 5 wt % sucrose solution; assay: Intensification of the impression of sweetness of a sugar solution, assessed by a panel of experts; conditions: for % intensification of the impression of sweetness: calculated from mean values with vs without test substance; for Impression of sweetness (1-10) with: scale 1 [not sweet] to 10 [extremely sweet]; for sweetness intensifying action (in words): residue at position C5 instead of C7, compared with compounds to be used according to the invention
Procedure: For quantifying the intensification of the impression of sweetness, the sweetness of a 5 wt % sucrose solution (consisting of 5 wt % sucrose in water) and of a sample that consisted of water, 5 wt % sucrose and a specified amount (i.e. that given below in each case) of test substance was determined by a panel of experts. The assessment was based on a scale from 1 [not sweet] to 10 [extremely sweet]. The intensification of the impression of sweetness (in %) was calculated from the respective mean values of the assessments of the sucrose solution and of the respective sample to be investigated containing the test substance. The test substances used were in each case a racemic mixture of the following compounds to be used according to the invention. […]

[2] = test system: bitterness of a solution containing 500 ppm caffeine; assay: Reduction of bitterness of a solution of bitter substance (caffeine), assessed by a panel of experts; conditions: 50 ppm test substance
Excerpt: (§1) To quantify the reduction (i.e. the masking or decrease) of the impression of bitterness in a sample, the bitterness of a solution containing 500 ppm caffeine or 100 ppm naringin was compared by a panel of experts, in each case against a sample that contained 500 ppm caffeine or 100 ppm naringin and additionally the amount stated in each case of a substance to be assessed (with respect to capacity for reducing bitterness) (assessment scale: 1 [not bitter] through 10 [extremely bitter]). Evaluation, i.e. calculation of the reduction (in %) of the impression of bitterness, was based in each case on the mean values of the assessment of the panel of experts.

[3] = test system: bitterness of a solution containing 100 ppm naringin; assay: Reduction of bitterness of a solution of bitter substance (naringin), assessed by a panel of experts; conditions: 25 ppm test substance
Excerpt: as §1

[4] = 50 ppm test substance in 5 wt % sucrose solution
[5] = 50 ppm test substance in water with 5 wt % sucrose
[6] = scale 1 [not bitter] through 10 [extremely bitter]

Molecule	% intensification of the impression of sweetness [1, 4]	Impression of sweetness (1-10) with [1, 5]	other results
COc1cc(O)c2c(c1)OC(=O)C[C@H]2c1ccc(O)c(OC)c1 [(23) + (24), (4S)-5-Hydroxy-4-(4-hydroxy-3-methoxyphenyl)-7-methoxy-chroman-2-one (23) and (4R)-5-hydroxy-4-(4-hydroxy-3-methoxyphenyl)-7-methoxy-chroman-2-one (24)]	47%	7.6 ± 1.5	–
COc1cc([C@@H]2CC(=O)Oc3cc(O)cc(OC)c32)ccc1O [(A), (4S)-7-Hydroxy-4-(4-hydroxy-3-methoxyphenyl)-5-methoxy-chroman-2-one]	–	–	sweetness intensifying action (in words) [1]: much lower sweetness intensifying action
(4S)-4-(4-Hydroxyphenyl)-7-methoxy-chroman-2-one (19) and (4R)-4-(4-hydroxyphenyl)-7-methoxy-chroman-2-one (20) [(19) + (20)]	14% (p < 0.09)	5.4 ± 1.1	% reduction of the impression of bitterness ([2]; calculated from mean values): 9.9%; Impression of bitterness (1-10) with [2, 6]: 3.6 ± 1.5
(4S)-7-Methoxy-4-(4-methoxyphenyl)chroman-2-one (1) and (4R)-7-methoxy-4-(4-methoxyphenyl)chroman-2-one (2) [(1) + (2)]	12% (p < 0.08)	5.4 ± 0.9	–
COc1cc([C@H]2CC(=O)Oc3cc(O)cc(OC)c32)ccc1O [(B), (4R)-7-hydroxy-4-(4-hydroxy-3-methoxyphenyl)-5-methoxy-chroman-2-one]	–	–	sweetness intensifying action (in words) [1]: much lower sweetness intensifying action
COc1cc([C@@H]2CC(=O)Oc3cc(O)cc(OC)c32)ccc1O [(A) + (B), (4S)-7-Hydroxy-4-(4-hydroxy-3-methoxyphenyl)-5-methoxy-chroman-2-one (A) and (4R)-7-hydroxy-4-(4-hydroxy-3-methoxyphenyl)-5-methoxy-chroman-2-one (B)]	8% (p < 0.5)	5.8 ± 1.4	–
COc1cc(OC)c2c(c1)OC(=O)C[C@H]2c1ccc(O)c(OC)c1 [(17) + (18), (4S)-4-(4-Hydroxy-3-methoxyphenyl)-5,7-dimethoxy-chroman-2-one (17) and (4R)-4-(4-hydroxy-3-methoxyphenyl)-5,7-dimethoxy-chroman-2-one (18)]	37% (p < 0.002)	7.1 ± 1.8	% reduction of the impression of bitterness ([3]; calculated from mean values): 9.9%; Impression of bitterness (1-10) with [3, 6]: 4.8 ± 2.5
CCCOc1ccc2c(c1)OC(=O)C[C@H]2c1ccc(O)cc1 [(11) + (12), (4S)-4-(4-Hydroxyphenyl)-7-propoxy-chroman-2-one (11) and (4R)-4-(4-hydroxyphenyl)-7-propoxy-chroman-2-one (12)]	–	–	% intensification of the impression of sweetness ([1]; 25 ppm test substance in 5 wt % sucrose solution): 14% (p < 0.09); Impression of sweetness (1-10) with ([1]; 25 ppm test substance in water with 5 wt % sucrose): 6.6 ± 1.5
